Results: the NIST ThermoML archive (doi:10.1016/j.tca.2006.04.001)
Numbers after ± are expanded uncertainties.

Conditions: Liquid, Pycnometric method

CCCCCCCCCCCCCCCCCCCCC [heneicosane]
Conditions | specific volume [m3/kg]
313.65 K | 0.001285 ± 1.9e-05
315.75 K | 0.001283 ± 1.9e-05
317.65 K | 0.001286 ± 1.9e-05
319.65 K | 0.001288 ± 1.9e-05
321.55 K | 0.001289 ± 1.9e-05
323.55 K | 0.001291 ± 1.9e-05
325.45 K | 0.001294 ± 1.9e-05
327.45 K | 0.001296 ± 1.9e-05
329.35 K | 0.001299 ± 1.9e-05
331.25 K | 0.001302 ± 1.9e-05
333.25 K | 0.001302 ± 1.9e-05
335.15 K | 0.001304 ± 2e-05
337.15 K | 0.001307 ± 2e-05
339.05 K | 0.001309 ± 2e-05
341.05 K | 0.00131 ± 2e-05
342.95 K | 0.001313 ± 2e-05
344.85 K | 0.001315 ± 2e-05
346.85 K | 0.001317 ± 2e-05
348.75 K | 0.001321 ± 2e-05
350.75 K | 0.001324 ± 2e-05
352.65 K | 0.001325 ± 2e-05
354.65 K | 0.001329 ± 2e-05
354.85 K | 0.001329 ± 2e-05
356.55 K | 0.001331 ± 2e-05
358.45 K | 0.001333 ± 2e-05
360.45 K | 0.001335 ± 2e-05
362.35 K | 0.001337 ± 2e-05
364.35 K | 0.00134 ± 2e-05
366.25 K | 0.001342 ± 2e-05
368.15 K | 0.001344 ± 2e-05
370.15 K | 0.001349 ± 2e-05
372.05 K | 0.00135 ± 2e-05
374.05 K | 0.001354 ± 2e-05
375.45 K | 0.001353 ± 2e-05
375.95 K | 0.001354 ± 2e-05
377.95 K | 0.001358 ± 2e-05
379.85 K | 0.001361 ± 2.1e-05
381.75 K | 0.001362 ± 2.1e-05
383.75 K | 0.001366 ± 2.1e-05
385.65 K | 0.001367 ± 2.1e-05
387.65 K | 0.001369 ± 2.1e-05
389.55 K | 0.001373 ± 2.1e-05
391.55 K | 0.001373 ± 2.1e-05
393.45 K | 0.001377 ± 2.1e-05
395.35 K | 0.00138 ± 2.1e-05
396.05 K | 0.00138 ± 2.1e-05
397.35 K | 0.001381 ± 2.1e-05
399.25 K | 0.001386 ± 2.1e-05
401.25 K | 0.001384 ± 2.1e-05
403.15 K | 0.001387 ± 2.1e-05
405.15 K | 0.001392 ± 2.1e-05
407.05 K | 0.001394 ± 2.1e-05
408.95 K | 0.001396 ± 2.1e-05
410.95 K | 0.001401 ± 2.1e-05
412.85 K | 0.001401 ± 2.1e-05
414.85 K | 0.001404 ± 2.1e-05
416.65 K | 0.001408 ± 2.1e-05
416.75 K | 0.001409 ± 2.1e-05
418.65 K | 0.00141 ± 2.1e-05
420.65 K | 0.001411 ± 2.1e-05
422.55 K | 0.001417 ± 2.1e-05
424.55 K | 0.001419 ± 2.1e-05
426.45 K | 0.001421 ± 2.1e-05
428.45 K | 0.001423 ± 2.1e-05
430.35 K | 0.001426 ± 2.2e-05
432.25 K | 0.001432 ± 2.2e-05
434.25 K | 0.001432 ± 2.2e-05
436.15 K | 0.001436 ± 2.2e-05
437.25 K | 0.001437 ± 2.2e-05
438.15 K | 0.001437 ± 2.2e-05
440.05 K | 0.001443 ± 2.2e-05
442.05 K | 0.001444 ± 2.2e-05
443.95 K | 0.001448 ± 2.2e-05
445.85 K | 0.00145 ± 2.2e-05
447.85 K | 0.001454 ± 2.2e-05
449.75 K | 0.001455 ± 2.2e-05
451.75 K | 0.001458 ± 2.2e-05
453.65 K | 0.00146 ± 2.2e-05
455.65 K | 0.001464 ± 2.2e-05
457.55 K | 0.001467 ± 2.2e-05
457.85 K | 0.001468 ± 2.2e-05
459.45 K | 0.00147 ± 2.2e-05
461.45 K | 0.001471 ± 2.2e-05
463.35 K | 0.001476 ± 2.2e-05
465.35 K | 0.001479 ± 2.2e-05
467.25 K | 0.001484 ± 2.2e-05
469.15 K | 0.001485 ± 2.2e-05
471.15 K | 0.001489 ± 2.2e-05
473.05 K | 0.001491 ± 2.2e-05
475.05 K | 0.001492 ± 2.2e-05
476.95 K | 0.001497 ± 2.3e-05
478.45 K | 0.001498 ± 2.3e-05
478.95 K | 0.001502 ± 2.3e-05
480.85 K | 0.001503 ± 2.3e-05
482.75 K | 0.001505 ± 2.3e-05
484.75 K | 0.001511 ± 2.3e-05
486.65 K | 0.001513 ± 2.3e-05
488.65 K | 0.001516 ± 2.3e-05
488.75 K | 0.001517 ± 2.3e-05
490.55 K | 0.001519 ± 2.3e-05
492.55 K | 0.001521 ± 2.3e-05
494.45 K | 0.001523 ± 2.3e-05
496.35 K | 0.00153 ± 2.3e-05
498.35 K | 0.001531 ± 2.3e-05
500.25 K | 0.001537 ± 2.3e-05
502.25 K | 0.001536 ± 2.3e-05
504.15 K | 0.001543 ± 2.3e-05
506.15 K | 0.001544 ± 2.3e-05
508.05 K | 0.00155 ± 2.3e-05
509.95 K | 0.001551 ± 2.3e-05
511.95 K | 0.001554 ± 2.3e-05
513.85 K | 0.001559 ± 2.3e-05
515.85 K | 0.001564 ± 2.4e-05
517.75 K | 0.001567 ± 2.4e-05
519.65 K | 0.001569 ± 2.4e-05
521.65 K | 0.001575 ± 2.4e-05
523.55 K | 0.001575 ± 2.4e-05
525.55 K | 0.001582 ± 2.4e-05
527.45 K | 0.001586 ± 2.4e-05
529.45 K | 0.001588 ± 2.4e-05
531.35 K | 0.001588 ± 2.4e-05
533.25 K | 0.001596 ± 2.4e-05
535.25 K | 0.0016 ± 2.4e-05
537.15 K | 0.001603 ± 2.4e-05
539.15 K | 0.001606 ± 2.4e-05
541.05 K | 0.001612 ± 2.4e-05
543.05 K | 0.001614 ± 2.4e-05
544.95 K | 0.001617 ± 2.4e-05
546.85 K | 0.001621 ± 2.4e-05
548.85 K | 0.001626 ± 2.4e-05
550.75 K | 0.001626 ± 2.4e-05
552.75 K | 0.001634 ± 2.5e-05
554.65 K | 0.001635 ± 2.5e-05
556.65 K | 0.001639 ± 2.5e-05
558.55 K | 0.001643 ± 2.5e-05
560.45 K | 0.001648 ± 2.5e-05
562.45 K | 0.00165 ± 2.5e-05
564.35 K | 0.001657 ± 2.5e-05
566.35 K | 0.001659 ± 2.5e-05
